From the supplement of paper PMC10307832

Assays:
Assay in all cases: relative viability (nuclei count vs DMSO), 5 days (fraction); higher = more cells survive
[1] = compound: CCn1c(-c2nonc2N)nc2c(C#CC(C)(C)O)ncc(OC[C@H]3CCCNC3)c21 + COc1cccc2cc(-c3nc([C@H]4CC[C@H](C(=O)O)CC4)n4ncnc(N)c34)[nH]c12 [OSI-027] (partner 0.5 µM)
In short: (§1)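 Lung cancer cell lines in 1536-well plates were dosed by pin tool the day after seeding, either with one drug alone or with a fixed anchor-drug dose plus five library-drug doses (not always all listed) in √10 steps. After 5 days, cells were fixed and their nuclei stained in one step (final 0.05% Triton X-100, 1% formaldehyde, 1 ug/ml Hoechst), then counted on 4× images. Relative viability is the nuclei count in treated wells divided by that in vehicle wells. Values are medians of duplicate plates.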

[2] = compound: CCn1c(-c2nonc2N)nc2c(C#CC(C)(C)O)ncc(OC[C@H]3CCCNC3)c21 + CS(=O)(=O)CCNCc1ccc(-c2ccc3ncnc(Nc4ccc(OCc5cccc(F)c5)c(Cl)c4)c3c2)o1 [Lapatinib] (partner 2 µM)
In short: as §1

BAM7 + Foretinib = compound: CCOC1=CC=CC=C1N=NC2=C(NN(C2=O)C3=NC(=CS3)C4=CC=CC=C4)C [BAM7] + COc1cc2c(Oc3ccc(NC(=O)C4(C(=O)Nc5ccc(F)cc5)CC4)cc3F)ccnc2cc1OCCCN1CCOCC1 [Foretinib] (partner 0.25 µM)
In short: as §1

[3] = compound: CCn1c(-c2nonc2N)nc2c(C#CC(C)(C)O)ncc(OC[C@H]3CCCNC3)c21 + Nc1nc2[nH]cc(CCc3ccc(C(=O)N[C@@H](CCC(=O)O)C(=O)O)cc3)c2c(=O)[nH]1 [Pemetrexed] (partner 0.2 µM)
In short: as §1

Row | Cell Line | relative viability ([1]; first compound 0.01 µM) | relative viability ([1]; first compound 0.03162 µM) | relative viability ([1]; first compound 0.1 µM) | relative viability ([1]; first compound 0.3162 µM) | relative viability ([1]; first compound 1 µM) | relative viability ([2]; first compound 0.01 µM) | relative viability ([2]; first compound 0.03162 µM) | relative viability ([2]; first compound 0.1 µM) | relative viability ([2]; first compound 0.3162 µM) | relative viability ([2]; first compound 1 µM) | relative viability (BAM7 + Foretinib; first compound 0.5 µM) | relative viability (BAM7 + Foretinib; first compound 5 µM) | relative viability (BAM7 + Foretinib; first compound 15.81 µM) | relative viability (BAM7 + Foretinib; first compound 50 µM) | relative viability ([3]; first compound 0.01 µM) | relative viability ([3]; first compound 0.03162 µM) | relative viability ([3]; first compound 0.1 µM) | relative viability ([3]; first compound 0.3162 µM) | relative viability ([3]; first compound 1 µM)
1 | NCI-H3122 | 0.875 | 0.913 | 0.791 | 0.317 | 0.4 | 0.959 | 1.04 | 1.05 | 1.13 | 1 | 0.838 | 0.856 | 0.916 | 0.866 | 0.206 | 0.208 | 0.201 | 0.195 | 0.2
2 | PC-3 [JPC-3] | 0.786 | 0.699 | 0.808 | 0.736 | 0.682 | 0.442 | 0.433 | 0.472 | 0.449 | 0.445 | 0.923 | 0.948 | 0.819 | 0.915 | 1.01 |  | 1.03 | 0.946 | 1.17
3 | PC-14 | 0.706 | 0.968 | 0.797 | 0.499 | 0.613 | 0.314 | 0.406 | 0.319 | 0.246 | 0.291 | 0.981 | 1.03 | 0.888 | 1.01 | 0.127 | 0.126 | 0.14 | 0.136 | 0.147
4 | RERF-LC-KJ | 0.497 | 0.564 | 0.526 | 0.446 | 0.395 | 0.873 | 0.743 | 0.814 | 0.832 | 0.926 | 0.821 | 0.832 | 0.81 | 0.833 | 0.486 | 0.442 | 0.432 | 0.478 | 0.488
5 | SK-LU-1 | 0.387 | 0.365 | 0.318 | 0.29 | 0.343 | 1.02 | 0.907 | 0.85 | 0.894 | 0.676 | 0.875 | 0.925 | 0.72 | 0.857 | 0.869 | 0.985 | 0.823 | 0.929 | 0.855
6 | SK-MES-1 | 0.642 | 0.598 | 0.552 | 0.531 | 0.609 | 0.46 | 0.425 | 0.507 | 0.424 | 0.406 | 0.913 | 1.06 | 0.937 | 1.08 | 0.971 | 0.945 | 0.947 | 0.909 | 0.983
7 | SW 1573 | 0.59 | 0.559 | 0.514 | 0.34 | 0.27 | 1.1 | 1 | 1.02 | 0.869 | 0.946 | 0.939 | 0.997 | 1.04 | 0.966 | 0.772 | 0.773 | 0.765 | 0.646 | 0.736
